Test: Waters ACQUITY UPLC BEH C18, 100 × 2.1 mm, 1.7 µm, 40 °C, 0.3 to 0.4 mL/min, estimated dead time 0.63 min; A: water + 0.1% formic acid; B: methanol + 0.1% formic acid; gradient (min/%B) 0/0.5 0.1/0.5 10/80 10.1/99.5 12/99.5
Conditions: stereoisomer not certain

| LC retention time | Compound |
| --- | --- |
| 5.19 min | COc1cc(C=CC(=O)NCCCCNC(=O)C=Cc2ccc(O)c(OC)c2)ccc1O |
| 4.63 min | O=c1c(-c2ccc(O)c(O)c2)coc2cc(O)ccc12 |
| 3.81 min | O=C(C=Cc1ccc(O)cc1)OCC1OC(OC2C(c3c(O)cc4oc(-c5ccc(O)c(O)c5)cc(=O)c4c3O)OC(CO)C(O)C2O)C(O)C(O)C1O (centres undefined) |
| 5.3 min | O=C1CC(c2ccc(O)cc2)Oc2cc(O)ccc21 (centres undefined) |
| 6.14 min | COc1cc(-c2oc3cc(O)cc(O)c3c(=O)c2O)ccc1O |
| 3.11 min | O=C(O)c1cc(=O)c2ccccc2[nH]1 |
| 4.8 min | COc1cc(-c2cc(=O)c3c(O)cc(OC4OC(COC(=O)CC(=O)O)C(O)C(O)C4O)cc3o2)ccc1O (centres undefined) |
| 7.77 min | CN1c2ccccc2C(=O)N2CCc3c([nH]c4ccccc34)C21 (centres undefined) |
| 3.65 min | O=c1ccc2ccc(O)c(O)c2o1 |
| 3.11 min | COc1cc2ccc(=O)oc2cc1OC1OC(CO)C(O)C(O)C1O (centres undefined) |
| 7.17 min | O=C1CC(c2ccccc2)Oc2ccc(O)cc21 (centres undefined) |
| 2.35 min | O=C(C=Cc1ccc(O)cc1)Oc1cc(O)c2c(=O)c(OC3OC(CO)C(O)C(O)C3O)c(-c3ccc(O)cc3)oc2c1 (centres undefined) |
| 4.17 min | O=c1c(OC2OCC(O)C(O)C2O)c(-c2ccc(O)c(O)c2)oc2cc(O)cc(O)c12 (centres undefined) |
| 4.42 min | CC(=O)OCC1OC(Oc2c(-c3ccc(O)c(O)c3)oc3cc(O)cc(O)c3c2=O)C(O)C(O)C1O (centres undefined) |
| 3.08 min | O=C(C=Cc1ccc(O)cc1)OC1CC(O)(C(=O)O)CC(O)C1O (centres undefined) |
| 4.54 min | COc1cc(-c2cc(=O)c3c(O)cc(OC4OC(C(=O)O)C(O)C(O)C4O)cc3o2)cc(OC)c1O (centres undefined) |
| 4.45 min | O=c1cc(-c2ccc(OC3OC(CO)C(O)C(O)C3O)c(O)c2)oc2cc(O)cc(O)c12 (centres undefined) |
| 4.21 min | O=c1cc(-c2ccc(O)cc2)oc2cc(O)c(C3OCC(O)C(O)C3OC3OC(CO)C(O)C(O)C3O)c(O)c12 (centres undefined) |
| 4.18 min | O=c1cc(-c2ccc(O)cc2)oc2cc(OC3OC(CO)C(O)C(O)C3O)cc(O)c12 (centres undefined) |
| 3.19 min | O=c1cc(-c2ccc(O)c(O)c2)oc2c(C3OC(CO)C(O)C(O)C3O)c(O)c(C3OCC(O)C(O)C3O)c(O)c12 (centres undefined) |
| 3.89 min | O=c1cc(-c2ccc(O)cc2)oc2c(C3OCC(O)C(O)C3O)c(O)c(C3OCC(O)C(O)C3O)c(O)c12 (centres undefined) |
| 7.57 min | CC(C)=CCc1c(O)c(-c2cc(-c3cc(=O)c4c(O)cc(O)cc4o3)ccc2O)c2oc(-c3ccc(O)cc3)cc(=O)c2c1O |
| 7.38 min | O=c1cc(-c2ccc(O)cc2)oc2cc(O)ccc12 |
| 4.61 min | CC1OC(OC2C(c3c(O)cc(O)c4c(=O)cc(-c5ccc(O)cc5)oc34)OC(CO)C(O)C2O)C(O)C(O)C1O (centres undefined) |
| 4.76 min | COc1cc(C=CC(=O)OC2C(OC3C(Oc4ccc(-c5cc(=O)c6c(O)cc(O)cc6o5)cc4)OC(C(=O)O)C(O)C3O)OC(C(=O)O)C(O)C2O)ccc1O (centres undefined) |
| 3.62 min | CC1OC(Oc2cc(O)c3c(=O)c(OC4OC(COC5OC(CO)C(O)C(O)C5O)C(O)C(O)C4O)c(-c4ccc(O)cc4)oc3c2)C(O)C(O)C1O (centres undefined) |
| 6.01 min | O=c1c(O)c(-c2ccc(O)cc2)oc2cc(O)cc(O)c12 |

Further lines, the compound ahead of its results:

| Compound | LC retention time |
| --- | --- |
| O=C(O)C1CCC(=O)N1CC1(O)OC(CO)C(O)C1O (centres undefined) | 1.77 min |
| CS(=O)CCCCC(=NOS(=O)(=O)O)SC1OC(CO)C(O)C(O)C1O (centres undefined) | 1.74 min |
| COC(=O)C1=C2Nc3ccccc3C23CCN2C4OC56C7CC4(CN5c4c(OC)cccc4C64CCN5CCC6OCCC6(C7)C54)C4OCCC4(C1)C23 (centres undefined) | 5.79 min |
| C=CCS(=O)CC(NCC1(O)OCC(O)C(O)C1O)C(=O)O (centres undefined) | 1.66 min |
| CSCC(NC(=O)CCC(NCC1(O)OCC(O)C(O)C1O)C(=O)O)C(=O)O (centres undefined) | 2.12 min |
| CC1CCC2C(C)C3C(CC4C5CC=C6CC(OC7OC(CO)C(OC8OC(C)C(O)C(O)C8O)C(O)C7OC7OC(C)C(O)C(O)C7O)CCC6(C)C5CCC43C)N2C1 (centres undefined) | 5.01 min |
| COc1cc(C=CC(=O)OC2C(O)CC(O)(C(=O)O)CC2O)ccc1O (centres undefined) | 3.74 min |
| CC1=C(O)C(=O)CC(OC2CC(C)(C)CC3C4=CCC5C6(C)CCC(OC7OC(C(=O)O)C(O)C(O)C7OC7OC(C(=O)O)C(O)C(O)C7OC7OC(C)C(O)C(O)C7O)C(C)(CO)C6CCC5(C)C4(C)CCC23C)O1 (centres undefined) | 7.66 min |
| CCCCCC=CCC=CCC=CCCCCC(=O)OC(CO)COP(=O)(O)OCCN (centres undefined) | 8.73 min |
| CC1(C)CCC2(C(=O)O)CCC3(C)C(=CCC4C5(C)CCC(OC6OC(C(=O)O)C(O)C(OC7OC(CO)C(O)C(O)C7O)C6O)C(C)(CO)C5CCC43C)C2C1 (centres undefined) | 7.55 min |
| C=CC1C(OC2OC(CO)C(O)C(O)C2O)OC=C(C(=O)OC)C1CC1NC(C(=O)O)Cc2c1[nH]c1ccccc21 (centres undefined) | 4.13 min |
| CC(=O)OCC1OC(OC2C(O)COC(OC3C(O)C(C)(C)CC4C5=CCC6C7(C)CCC(OC8OC(C(=O)O)C(O)C(O)C8OC8OC(CO)C(O)C(O)C8OC8OC(CO)C(O)C(O)C8O)C(C)(CO)C7CCC6(C)C5(C)CCC43C)C2O)C(OC(C)=O)C(OC(C)=O)C1OC(C)=O (centres undefined) | 6.26 min |
| CC(C)CC(N)C(=O)NCC(=O)O (centres undefined) | 2.08 min |
| NCCc1c[nH]c2ccccc12 | 1.79 min |
| CCCCCCCCCCCCOS(=O)(=O)O | 8.65 min |
| CC1OC(OC2C(Oc3cc(O)c4c(c3)OC(c3ccc(O)c(O)c3)CC4=O)OC(CO)C(O)C2O)C(O)C(O)C1O (centres undefined) | 4.04 min |
| CC1=C(CCC(C)COC2OC(CO)C(O)C(O)C2OC2OC(C)C(O)C(O)C2O)OC2CC3C4CC=C5CC(O)CC(OC6OC(CO)C(O)C(O)C6O)C5(C)C4CCC3(C)C12 (centres undefined) | 5.2 min |
| COc1cc2cc3c4cc(OC)c(OC)cc4cc[n+]3c(C)c2cc1OC | 5.27 min |
| CCN1CC2(COC)CCC(O)C34C5CC6C(OC)CC(O)(C(CC23)C14)C5C6O (centres undefined) | 2.91 min |
| CC1CCC2(OC1O)OC1CC3C4CC=C5CC(OC6OC(CO)C(OC7OC(C)C(O)C(O)C7O)C(O)C6OC6OC(C)C(O)C(O)C6O)CCC5(C)C4CC(O)C3(C)C1C2C (centres undefined) | 5.61 min |
| CCC(C)C(NCC1(O)OCC(O)C(O)C1O)C(=O)NC(CCC(=O)O)C(=O)O (centres undefined) | 2.07 min |
| CCC(C)C(N)C(=O)NC(CCC(N)=O)C(=O)O (centres undefined) | 1.82 min |
| CCSSCC(NCC1(O)OCC(O)C(O)C1O)C(=O)NCCC(=O)O (centres undefined) | 3.29 min |
| CN1CCc2cc3c(cc2C(=O)Cc2ccc4c(c2C1)OCO4)OCO3 | 4.36 min |
| C[N+]1([O-])CCCC1c1cccnc1 (centres undefined) | 1.82 min |
| CN1CCc2cc3c(c4c2C1Cc1ccccc1-4)OCO3 (centres undefined) | 4.89 min |

| Compound | LC retention time |
| --- | --- |
| CCCCCCCCCCCCCCCC(=O)OCC(O)COP(=O)(O)OCCNC1OC(CO)C(O)C(O)C1O (centres undefined) | 9.72 min |
| CC1(C)CCC2(C(=O)O)CCC3(C)C(=CCC4C5(C)CC(O)C(O)C(C)(C)C5CCC43C)C2C1 (centres undefined) | 9.77 min |
| CC(CSCC(NC(=O)CCC(N)C(=O)O)C(=O)O)C(=O)O (centres undefined) | 2.39 min |
| CCC1(O)C(=O)OCc2c1cc1n(c2=O)Cc2cc3ccccc3nc2-1 (centres undefined) | 5.4 min |
| Nc1nc2c(ncn2C2OC(CO)C(O)C2O)c(=O)[nH]1 (centres undefined) | 1.93 min |
| COc1ccc2cc1Oc1ccc(cc1)CC1c3cc(c(OC)cc3CCN1C)Oc1c(OC)c(OC)cc3c1C(C2)N(C)CC3 (centres undefined) | 4.19 min |
| COC(=O)C1=COC(C)C2CN3CCC4(C(=O)Nc5c4ccc(OC)c5OC)C3CC12 (centres undefined) | 4.48 min |
| O=C(O)C1OC(Oc2ccc(-c3oc4cc(O)c(C5OC(CO)C(O)C(O)C5O)c(O)c4c(=O)c3C3OC(CO)C(O)C(O)C3O)cc2)C(O)C(O)C1O (centres undefined) | 4.68 min |
| C=CC1C(OC2OC(CO)C(O)C(O)C2O)OC=C2C(=O)N3Cc4c([nH]c5ccccc5c4=O)C3CC21 (centres undefined) | 4.07 min |
| C=CC(O)CC(=NOS(=O)(=O)O)SC1OC(CO)C(O)C(O)C1O (centres undefined) | 1.77 min |
| CC12CC3(O)OC(O1)C1(COC(=O)c4ccccc4)C3CC21OC1OC(CO)C(O)C(O)C1O (centres undefined) | 3.78 min |
| CCC(C)C(NC(=O)C([NH3+])C(C)C)C(=O)[O-] (centres undefined) | 2.88 min |
| COc1cc(C=O)ccc1OC(C)=O | 5.59 min |
| COCC=C1CN2C3CC45C(=Nc6c(OC)cc(OC)c(OC)c64)OCC3C1CC25 (centres undefined) | 3.82 min |
| COc1ccc2c(c1)[nH]c1c(C)nccc12 | 4.11 min |
| COc1ccc(C2CC(=O)c3c(O)cc(OC4OC(CO)C(O)C(O)C4OC4OC(C)C(O)C(O)C4O)cc3O2)cc1 (centres undefined) | 5.42 min |
| CCCCCC(O)CC(=O)CCc1ccc(O)c(OC)c1 (centres undefined) | 7.45 min |
| CC(CCC1C(CO)=CC(=O)CC1(C)C)OC1OC(CO)C(O)C(O)C1O (centres undefined) | 3.81 min |
| COc1cc(O)c2c(=O)c(OC3OC(COC4OC(C)C(O)C(OC5OC(C)C(O)C(O)C5O)C4O)C(O)C(O)C3O)c(-c3ccc(O)c(O)c3)oc2c1 (centres undefined) | 4.79 min |
| COc1cc(-c2[o+]c3cc(O)cc(O)c3cc2OC2OC(CO)C(O)C(O)C2O)cc(O)c1O (centres undefined) | 3.21 min |
| O=C(O)C1Cc2c([nH]c3ccccc23)CN1 (centres undefined) | 3.35 min |
| CC(C)=CCCC(C)(O)C1CCC2(C)C1C(O)CC1C3(C)CCC(O)C(C)(C)C3C(OC3OC(CO)C(O)C(O)C3OC3OC(C)C(O)C(O)C3O)CC12C (centres undefined) | 6.25 min |
| CC=CS(=O)CC(NC(=O)CCC(NCC1(O)OCC(O)C(O)C1O)C(=O)O)C(=O)O (centres undefined) | 1.83 min |
| CC(C)(CO)C(O)C(=O)NCCC(=O)O (centres undefined) | 2.48 min |
| OCC1OC(OCC2OC(O)(CO)C(O)C2O)C(O)C(O)C1O (centres undefined) | 1.74 min |
| COc1ccc2c(c1)OC(OC1OC(C(=O)O)C(O)C(O)C1O)C(O)N2 (centres undefined) | 2.19 min |

Reference: the RepoRT retention time repository
